Data on 1 compound can be found in patent EP1107982B1, “[…] COMPLEXES OF 1,2-(CIS)-DIOL CYCLIC PEPTIDES” (Eli Lilly & Company, priority 1998, dated 2000).

Data set [1] in a line: Solubility of Compound C1 in the presence of m-APBA (suspension, centrifugation, HPLC of supernatant). The format is physicochemical. To be noted: for appearance of aqueous solution: 30 mg/ml. As for the experimental part: (§1) Unless indicated otherwise, all chemicals can be acquired from commercial sources (i.e., Aldrich Chemical, Sigma, etc.) in reagent grade or better. Centrifugation was performed using an IEC benchtop clinical centrifuge equipped with six-place swinging-bucket rotor (for samples > 1.5 ml) and an Eppendorf tabletop centri fuge model 5415C equipped with standard 18-place rotor (for samples ≤ 1.5 ml). HPLC analyses were performed using a Hewlett Packard Liquid Chromatograph Model 1090 equipped with a 0.46 x 25 cm Zorbax™ SB-C8 column. All injections were 10 µl, followed by gradient elution from 40-100% acetonitrile (AcN) over 25 minutes and UV detection at 280 nm. Unless otherwise stated, samples were diluted in 0.25 N acetic acid/AcN prior to injection to facilitate decomplexation and ensure solubility in the HPLC solvent system. All alkaline pH adjustments were made by addition of a 1:1 mixture of ammonium hydroxide and 50% sodium hydroxide. Measurements were taken with a Beckman φ40 pH meter calibrated with pH 7 and pH 10 standards.
Crude C1 was suspended at 50 mg/ml (65% potency: 32.5 mg/ml, or 28.5 mM) in 4 ml of either 100 mM m-APBA or 100 mM ammonium bicarbonate (control) at pH 5.0 and pH 9.0. The samples were stirred at room temperature for 2 hours, at which time aliquots were removed and assayed both before and after centrifugation for five minutes at […]. All samples were diluted 50-fold prior to HPLC analysis.
At low pH (≤ 8.0), solid suspensions of Compound C1 in m-APBA and in ammonium bicarbonate were visually identical. Both were opaque and contained varying amounts of solid, insoluble material. However, when the pH was adjusted to 9.0 dramatic differences in appearance between the two samples was observed within approximately 30 minutes. The aqueous ammonium bicarbonate control was beige in color and completely opaque; whereas, the sample containing m-APBA turned a transparent, dark brown. When the mixtures were subjected to centrifugation for 5 minutes at 16,000 x g and the resulting supernatants quantified by HPLC analysis, the concentration of C1 present in the m-APBA supernatant was 23.76 mg/ml (94% of that in the original suspension) and only 2.27 mg/ml (10% of the original suspension) was present in the ammonium bicarbonate control supernatant.

Data set [2] in a line: Stability of Compound C1 in m-APBA at alkaline pH (HPLC main peak purity). The format is physicochemical. As for the experimental part:
as §1
Compound C1 was suspended at 100 mg/ml (65% potency: 65 mg/ml (57 mM) in either 250 mM m-APBA or water (control). Separate samples were adjusted to pH 8.0, 8.5, 9.0, 9.5 and 10.0. Aliquots for time-point analysis were removed and diluted 100-fold in 100 mM acetic acid/methanol prior to HPLC injection. Stability was assessed by analysis of main peak purity, since degradation products are known to elute within the HPLC chromatographic window.

Setting [3] is: m-APBA replaced with boric acid (borate complex).

*1 amine or outer side, *2 acyl side, *3 side chain or, on linkers, in order; H or OH if unused. Where a SMILES comes first, the peptide text is derived from it. Bridges are numbered along the chain shown (N, C = ends). [ ]: non-standard residue; d: D form. The star is where a group is joined. pTerphenylCO(4''-OnC5H11) = CCCCCOc1ccc(-c2ccc(-c3ccc(C(=O)*)cc3)cc2)cc1; Orn(4R-OH,5R-OH) = O=C([C@H](C[C@@H](O)[C@@H](O)N[*:3])N[*:1])[*:2]; hTyr(3S-OH,4S-OH) = N[C@H](C(=O)O)[C@H](O)[C@@H](O)c1ccc(O)cc1; Pro(3S-OH,4S-Me) = C[C@H]1CN[C@H](C(=O)O)[C@H]1O; Hyp = O=C(O)[C@@H]1C[C@@H](O)CN1

For `CCCCCOc1ccc(-c2ccc(-c3ccc(C(=O)N[C@H]4C[C@@H](O)[C@@H](O)NC(=O)[C@@H]5[C@@H](O)[C@@H](C)CN5C(=O)[C@H]([C@@H](C)O)NC(=O)[C@H]([C@H](O)[C@@H](O)c5ccc(O)cc5)NC(=O)[C@@H]5C[C@@H](O)CN5C(=O)[C@H]([C@@H](C)O)NC4=O)cc3)cc2)cc1` [Compound C1] ({pTerphenylCO(4''-OnC5H11)}-[Orn(4R-OH,5R-OH)]T[Hyp][hTyr(3S-OH,4S-OH)]T[Pro(3S-OH,4S-Me)]; lactam 1-C), the “concentration in supernatant as % of the original suspension” value in data set [1] (100 mM ammonium bicarbonate control, pH 9.0) is listed as 10%. For the same compound, the solubility thermodynamic at 2 h in data set [1] (100 mM ammonium bicarbonate control, pH 9.0, room temperature, crude C1 suspended at 50 mg/ml (32.5 mg/ml), after centrifugation, read-out: concentration of C1 present in the supernatant) is 2270 µg/mL. In addition, in data set [1] (100 mM m-APBA, pH 9.0), the “concentration in supernatant as % of that in the original suspension” value stood at 94%. Besides, the “concentration of C1 present in the supernatant” value in data set [1] (100 mM m-APBA, pH 9.0, room temperature, crude C1 suspended at 50 mg/ml (32.5 mg/ml), after centrifugation) is 23760 µg/mL. Besides, the “appearance of aqueous solution” value in data set [1] (boronate complex) is “transparent solution”; in data set [1] (non-complexed), “opaque slurry”. The increase in solubility in data set [1] (in the presence of m-aminophenyl boronic acid at pH 9.0 in aqueous solution) is reported as 10 fold. The solubility of complex result in data set [1] (setting [3]) and in data set [1] (m-APBA replaced with p-carboxyphenyl boronic acid (boronate complex)) was “increased solubility” throughout. Moreover, the “purity (main peak)” value in data set [2] (250 mM m-APBA, pH 9.5, after 17 hours) was above 70%. The “purity (main peak, of the total peak area)” value in data set [2] (aqueous control (water), pH 9.5, after 9 hours) is on record as “less than 70%”. The “chemical stability in comparison to the aqueous control” value in data set [2] (in the presence of m-APBA, alkaline pH) is listed as “enhanced chemical stability”. For the same compound, the stability of complex result in data set [2] (setting [3]) was “very stable”; in data set [2] (p-carboxyphenylboronic acid used instead of m-APBA) it was “did not appear to be as stable”.
